Patent US7041851B2, “Fluorinated phenyl thiophenyl derivatives and their use for imaging serotonin transporters” (The Trustees of the University of Pennsylvania, priority 2002, dated 2006)

What was measured:
SERT = biological target: T1, SERT (Rattus norvegicus, UniProt P31652); test: Pretreatment with monoamine reuptake inhibitors, specific binding of [18F]ACF in rat brain regions; type: in vivo, rats; design: Tracer uptake: Cortex / Tracer uptake: Remainder / Tracer uptake: Hypothalamus / Tracer uptake: Whole brain / Tracer uptake: Blood / Tracer uptake: Cerebellum / Tracer uptake: Striatum / Tracer uptake: Hippocampus: unit not given here; conditions: for Ratio to Cerebellum: Cerebellum / Ratio to Cerebellum: Cortex / Ratio to Cerebellum: Hippocampus / Ratio to Cerebellum: Hypothalamus / Ratio to Cerebellum: Remainder / Ratio to Cerebellum: Striatum / Tracer uptake: Blood / Tracer uptake: Cerebellum / Tracer uptake: Cortex / Tracer uptake: Hippocampus / Tracer uptake: Hypothalamus / Tracer uptake: Remainder / Tracer uptake: Striatum / Tracer uptake: Whole brain: 1 h after tracer
T1 construct: from tissue; host or cells: rat brain in vivo (hypothalamus, striatum, hippocampus, cerebellum)
T1 sequence (P31652 whole entry): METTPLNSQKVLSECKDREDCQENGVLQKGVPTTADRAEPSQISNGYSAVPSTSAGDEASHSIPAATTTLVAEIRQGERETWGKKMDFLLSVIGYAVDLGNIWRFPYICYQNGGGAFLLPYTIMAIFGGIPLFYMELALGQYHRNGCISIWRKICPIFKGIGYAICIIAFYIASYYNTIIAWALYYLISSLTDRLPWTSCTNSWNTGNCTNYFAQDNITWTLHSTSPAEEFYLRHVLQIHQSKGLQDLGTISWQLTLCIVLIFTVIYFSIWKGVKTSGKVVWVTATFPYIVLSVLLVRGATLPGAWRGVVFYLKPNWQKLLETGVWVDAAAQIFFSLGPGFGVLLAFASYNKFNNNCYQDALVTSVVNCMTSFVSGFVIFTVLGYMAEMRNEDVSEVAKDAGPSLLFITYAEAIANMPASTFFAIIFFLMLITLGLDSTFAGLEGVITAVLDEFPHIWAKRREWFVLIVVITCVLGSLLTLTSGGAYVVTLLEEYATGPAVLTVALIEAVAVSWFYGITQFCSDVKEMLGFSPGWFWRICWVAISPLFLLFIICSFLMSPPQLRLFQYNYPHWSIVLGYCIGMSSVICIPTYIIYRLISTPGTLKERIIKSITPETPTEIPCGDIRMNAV

[1] = In vivo metabolism of [18F]ACF in rats; conditions: three rats, one hour after iv injection
Experimental: In vivo metabolism of [^18F]ACF ([^18F]25), in three rats was evaluated at one hour after iv injection.

[2] = Organ distribution and brain regional uptake of [18F]ACF in rats
[3] = rats, Control (saline-pretreated)
[4] = rats, pretreated (+)McN5652 2 mg/kg iv 5 min prior
[5] = rats, pretreated Methylphenidate 2 mg/kg iv 5 min prior
[6] = rats, pretreated Nisoxetine 2 mg/kg iv 5 min prior

**Q.** With CN(C)Cc1ccccc1Sc1cc([18F])c(Cl)cc1N [[^18F]ACF] as the compound, how does the “Specific retention in brain regions after pretreatment” value (SERT; rats pretreated with methylphenidate) read?
**A.** No significant differences

**Q.** What about the “Specific retention in brain regions after pretreatment” value (SERT; rats pretreated with nisoxetine) of the same compound?
**A.** No significant differences

**Q.** What about the “Specific retention in hypothalamus, striatum and hippocampus after pretreatment” value (SERT; rats, 60 min, (+)McN5652 2 mg/Kg 5 min prior to tracer injection) of the same compound?
**A.** significant decrease

**Q.** And the “Ratio to Cerebellum: Cerebellum” value (SERT; [3])?
**A.** 1.00 ± 0.00

**Q.** And the “Ratio to Cerebellum: Cortex” value (SERT; [3])?
**A.** 1.86 ± 0.05

**Q.** And the “Ratio to Cerebellum: Hippocampus” value (SERT; [3])?
**A.** 2.52 ± 0.13

**Q.** And the “Ratio to Cerebellum: Hypothalamus” value (SERT; [3])?
**A.** 2.96 ± 0.03

**Q.** What about the “Ratio to Cerebellum: Remainder” value (SERT; [3]) of the same compound?
**A.** 2.26 ± 0.03

**Q.** What about the “Ratio to Cerebellum: Striatum” value (SERT; [3]) of the same compound?
**A.** 2.63 ± 0.23

**Q.** And the “Tracer uptake: Blood” value (SERT; [3])?
**A.** 0.26 ± 0.03

**Q.** What about the “Tracer uptake: Cerebellum” value (SERT; [3]) of the same compound?
**A.** 0.21 ± 0.02

**Q.** And the “Tracer uptake: Cortex” value (SERT; [3])?
**A.** 0.39 ± 0.03

**Q.** And the “Tracer uptake: Hippocampus” value (SERT; [3])?
**A.** 0.53 ± 0.03

**Q.** What about the “Tracer uptake: Hypothalamus” value (SERT; [3]) of the same compound?
**A.** 0.63 ± 0.05

**Q.** What about the “Tracer uptake: Remainder” value (SERT; [3]) of the same compound?
**A.** 0.48 ± 0.04

**Q.** And the “Tracer uptake: Striatum” value (SERT; [3])?
**A.** 0.56 ± 0.09

**Q.** What about the “Tracer uptake: Whole brain” value (SERT; [3]) of the same compound?
**A.** 0.81 ± 0.09

**Q.** And the “Ratio to Cerebellum: Cerebellum” value (SERT; [4])?
**A.** 1.00 ± 0.00

**Q.** And the “Ratio to Cerebellum: Cortex” value (SERT; [4])?
**A.** 1.43 ± 0.27

**Q.** What about the “Ratio to Cerebellum: Hippocampus” value (SERT; [4]) of the same compound?
**A.** 1.93 ± 0.21

**Q.** What about the “Ratio to Cerebellum: Hypothalamus” value (SERT; [4]) of the same compound?
**A.** 1.36 ± 0.15

**Q.** And the “Ratio to Cerebellum: Remainder” value (SERT; [4])?
**A.** 1.37 ± 0.16

**Q.** And the “Ratio to Cerebellum: Striatum” value (SERT; [4])?
**A.** 1.48 ± 0.32

**Q.** What about the “Tracer uptake: Blood” value (SERT; [4]) of the same compound?
**A.** 0.26 ± 0.03

**Q.** What about the “Tracer uptake: Cerebellum” value (SERT; [4]) of the same compound?
**A.** 0.17 ± 0.03

**Q.** What about the “Tracer uptake: Cortex” value (SERT; [4]) of the same compound?
**A.** 0.24 ± 0.02

**Q.** What about the “Tracer uptake: Hippocampus” value (SERT; [4]) of the same compound?
**A.** 0.34 ± 0.06

**Q.** What about the “Tracer uptake: Hypothalamus” value (SERT; [4]) of the same compound?
**A.** 0.24 ± 0.03

**Q.** What about the “Tracer uptake: Remainder” value (SERT; [4]) of the same compound?
**A.** 0.23 ± 0.01

**Q.** And the “Tracer uptake: Striatum” value (SERT; [4])?
**A.** 0.25 ± 0.03

**Q.** And the “Tracer uptake: Whole brain” value (SERT; [4])?
**A.** 0.42 ± 0.02

**Q.** And the “Ratio to Cerebellum: Cerebellum” value (SERT; [5])?
**A.** 1.00 ± 0.00

**Q.** And the “Ratio to Cerebellum: Cortex” value (SERT; [5])?
**A.** 2.02 ± 0.21

**Q.** And the “Ratio to Cerebellum: Hippocampus” value (SERT; [5])?
**A.** 2.50 ± 0.15

**Q.** What about the “Ratio to Cerebellum: Hypothalamus” value (SERT; [5]) of the same compound?
**A.** 3.05 ± 0.14

**Q.** What about the “Ratio to Cerebellum: Remainder” value (SERT; [5]) of the same compound?
**A.** 2.23 ± 0.05

**Q.** And the “Ratio to Cerebellum: Striatum” value (SERT; [5])?
**A.** 2.75 ± 0.09

**Q.** And the “Tracer uptake: Blood” value (SERT; [5])?
**A.** 0.28 ± 0.02

**Q.** What about the “Tracer uptake: Cerebellum” value (SERT; [5]) of the same compound?
**A.** 0.17 ± 0.02

**Q.** And the “Tracer uptake: Cortex” value (SERT; [5])?
**A.** 0.35 ± 0.03

**Q.** And the “Tracer uptake: Hippocampus” value (SERT; [5])?
**A.** 0.43 ± 0.03

**Q.** And the “Tracer uptake: Hypothalamus” value (SERT; [5])?
**A.** 0.52 ± 0.07

**Q.** And the “Tracer uptake: Remainder” value (SERT; [5])?
**A.** 0.38 ± 0.05

**Q.** What about the “Tracer uptake: Striatum” value (SERT; [5]) of the same compound?
**A.** 0.47 ± 0.06

**Q.** And the “Tracer uptake: Whole brain” value (SERT; [5])?
**A.** 0.67 ± 0.04

**Q.** And the “Ratio to Cerebellum: Cerebellum” value (SERT; [6])?
**A.** 1.00 ± 0.00

**Q.** And the “Ratio to Cerebellum: Cortex” value (SERT; [6])?
**A.** 1.94 ± 0.16

**Q.** What about the “Ratio to Cerebellum: Hippocampus” value (SERT; [6]) of the same compound?
**A.** 2.44 ± 0.11

**Q.** And the “Ratio to Cerebellum: Hypothalamus” value (SERT; [6])?
**A.** 2.89 ± 0.11

**Q.** What about the “Ratio to Cerebellum: Remainder” value (SERT; [6]) of the same compound?
**A.** 2.17 ± 0.04

**Q.** What about the “Ratio to Cerebellum: Striatum” value (SERT; [6]) of the same compound?
**A.** 2.50 ± 0.12

**Q.** And the “Tracer uptake: Blood” value (SERT; [6])?
**A.** 0.26 ± 0.01

**Q.** What about the “Tracer uptake: Cerebellum” value (SERT; [6]) of the same compound?
**A.** 0.19 ± 0.01

**Q.** What about the “Tracer uptake: Cortex” value (SERT; [6]) of the same compound?
**A.** 0.37 ± 0.04

**Q.** And the “Tracer uptake: Hippocampus” value (SERT; [6])?
**A.** 0.46 ± 0.02

**Q.** What about the “Tracer uptake: Hypothalamus” value (SERT; [6]) of the same compound?
**A.** 0.55 ± 0.02

**Q.** And the “Tracer uptake: Remainder” value (SERT; [6])?
**A.** 0.41 ± 0.01

**Q.** What about the “Tracer uptake: Striatum” value (SERT; [6]) of the same compound?
**A.** 0.47 ± 0.03

**Q.** And the “Tracer uptake: Whole brain” value (SERT; [6])?
**A.** 0.74 ± 0.04

**Q.** What about the “Activity extracted from the brain that was original compound (HPLC)” value [1] of the same compound?
**A.** 95.5±0.40%

**Q.** What about the “Percentage of organic-extractable material, kidney” value [1] of the same compound?
**A.** 20.25±0.60%

**Q.** And the “Percentage of organic-extractable material, liver” value [1]?
**A.** 20.03±6.60%

**Q.** And the “Percentage of organic-extractable material, plasma” value [1]?
**A.** 6.76±1.00%

**Q.** And the “Organ distribution: Blood” value ([2]; 2 min after iv injection)?
**A.** 6.56 ± 0.64 % dose/organ

**Q.** What about the “Organ distribution: Bone” value ([2]; 2 min after iv injection) of the same compound?
**A.** 0.01 ± 0.00 % dose/organ

**Q.** What about the “Organ distribution: Brain” value ([2]; 2 min after iv injection) of the same compound?
**A.** 3.27±0.79 % dose/organ

**Q.** And the “Organ distribution: Heart” value ([2]; 2 min after iv injection)?
**A.** 1.69 ± 0.24 % dose/organ

**Q.** What about the “Organ distribution: Kidney” value ([2]; 2 min after iv injection) of the same compound?
**A.** 6.97 ± 0.73 % dose/organ

**Q.** What about the “Organ distribution: Liver” value ([2]; 2 min after iv injection) of the same compound?
**A.** 9.41 ± 1.82 % dose/organ

**Q.** What about the “Organ distribution: Lung” value ([2]; 2 min after iv injection) of the same compound?
**A.** 14.89 ± 2.28 % dose/organ

**Q.** And the “Organ distribution: Muscle” value ([2]; 2 min after iv injection)?
**A.** 14.34 ± 9.76 % dose/organ

**Q.** And the “Organ distribution: Skin” value ([2]; 2 min after iv injection)?
**A.** 4.76 ± 0.89 % dose/organ

**Q.** What about the “Organ distribution: Spleen” value ([2]; 2 min after iv injection) of the same compound?
**A.** 0.64 ± 0.20 % dose/organ

**Q.** And the “Ratio to Cerebellum: Cerebellum” value ([2]; 2 min after iv injection)?
**A.** 1.00 ± 0.00

**Q.** And the “Ratio to Cerebellum: Cortex” value ([2]; 2 min after iv injection)?
**A.** 1.84 ± 0.43

**Q.** What about the “Ratio to Cerebellum: Hippocampus” value ([2]; 2 min after iv injection) of the same compound?
**A.** 1.24 ± 0.15

**Q.** What about the “Ratio to Cerebellum: Hypothalamus” value ([2]; 2 min after iv injection) of the same compound?
**A.** 1.37 ± 0.19

**Q.** And the “Ratio to Cerebellum: Remainder” value ([2]; 2 min after iv injection)?
**A.** 1.32 ± 0.21

**Q.** And the “Ratio to Cerebellum: Striatum” value ([2]; 2 min after iv injection)?
**A.** 1.41 ± 0.31

**Q.** And the “Regional brain distribution: Cerebellum” value ([2]; 2 min after iv injection)?
**A.** 1.33 ± 0.51 % dose/g

**Q.** And the “Regional brain distribution: Cortex” value ([2]; 2 min after iv injection)?
**A.** 2.31 ± 0.46 % dose/g

**Q.** And the “Regional brain distribution: Hippocampus” value ([2]; 2 min after iv injection)?
**A.** 1.60 ± 0.46 % dose/g

**Q.** And the “Regional brain distribution: Hypothalamus” value ([2]; 2 min after iv injection)?
**A.** 1.76 ± 0.48 % dose/g

**Q.** And the “Regional brain distribution: Remainder” value ([2]; 2 min after iv injection)?
**A.** 1.69 ± 0.43 % dose/g

**Q.** What about the “Regional brain distribution: Striatum” value ([2]; 2 min after iv injection) of the same compound?
**A.** 1.78 ± 0.36 % dose/g

**Q.** And the “Organ distribution: Blood” value ([2]; 30 min after iv injection)?
**A.** 4.52 ± 0.22 % dose/organ

**Q.** And the “Organ distribution: Bone” value ([2]; 30 min after iv injection)?
**A.** 0.04 ± 0.03 % dose/organ
